Laboratory results reported in patent US20070112042A1, “Topical agent for application to the skin prior to luminous treatment” (priority 2003, published 2007).

Test system: dermal collagen production
Conditions: topical Niacin plus 585 nm pulsed dye laser irradiation versus irradiation alone
Source text: Tests have been carried out for studying the dermal collagen production following topical application of Niacin prior to irradiation with a 585 nm pulsed dye laser.

## O=C(O)c1cccnc1 [Niacin, nicotinic acid]
  PIIINP levels (biochemical analysis): increase in the PIIINP levels above that of irradiation alone
